Earlier results on one substance are cited in patent publication US6153738A (priority 1999, dated 2000).

The test system of the data set is Swiss Webster mice. Particulars: mouse, in vivo.

For the substance GCX1 X2 EPWC [contryphan-R], the “symptomatology after intracranial injection into mice” value was “stiff-tail syndrome”.
